For this data set, the system named is rodent carcinogenicity bioassays, tumor incidence. In words: CCRIS carcinogenicity studies. In short, it runs like this:
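Archive of carcinogenicity, mutagenicity, tumor promotion and tumor inhibition results drawn from journals, NCI reports and other sources, expert-reviewed; covers 1985-2011 and is no longer updated.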

The source made the active and inactive calls. The rule behind the calls is not given here.

As to `Cn1c([N+](=O)[O-])cnc1C1=NOC2CCCCC12` (stereo unspecified), the carcinogen call (Species: MOUSE, Strain/Sex: SWISS/FEMALE, Route: INTRAPERITONEAL, Dose: 0, 80 UG/G BW 1/D FOR 30 DAYS (STUDY DURATION: LIFETIME), Tumor Site: Type of Lesion: LYMPHATIC SYSTEM: LYMPHOMA) is “active; positive”.

With `NNCCc1ccccc1`, the carcinogen call by setting is: (Species: MOUSE, Strain/Sex: SWISS/MALE, Route: ORAL, Dose: 0, 0.15% IN WATER, Tumor Site: Type of Lesion: BLOOD VESSELS: ANGIOMA, ANGIOSARCOMA, LUNG: ADENOMA, ADENOCARCINOMA) “active; positive”; (Species: RAT, Strain/Sex: SPRAGUE-DAWLEY/MALE, Route: ORAL, Dose: 0, 0.02% IN DIET FOR 68-87 WK (STUDY DURATION: 87 WK)) “inactive; negative”.

Regarding `C=CC(=O)OCC(CC)CCCC` (stereo unspecified), the carcinogen call (Species: MOUSE, Strain/Sex: NMRI/MALE, Route: DERMAL, Dose: 0, 21.5, 43, 85% (W/W) IN ACETONE 3/WK FOR 2 YR (STUDY DURATION: 2 YR), Dose: 0, 21.5, 43, 85% (W/W) IN ACETONE 3/WK FOR 2 YR (STUDY DURATION: 2 YR)) is “inactive; negative”.

In the case of `CCCCN(COC(C)=O)N=O`, the carcinogen call is, setting by setting: (Species: RAT, Strain/Sex: F344/FEMALE, Route: SUBCUTANEOUS, Dose: 6.6 MG/KG 1/WK FOR 10 WK, Tumor Site: Type of Lesion: INJECTION SITE: MALIGNANT FIBROUS HISTIOCYTOMA) “active; positive”; (Species: RAT, Strain/Sex: F344/MALE, Route: SUBCUTANEOUS, Dose: 6.6 MG/KG 1/WK FOR 10 WK, Tumor Site: Type of Lesion: INJECTION SITE: MALIGNANT FIBROUS HISTIOCYTOMA, LUNG: ADENOMA OR ADENOCARCINOMA OR SQUAMOUS CELL CARCINOMA) “active; positive”.

For `CC/C(=C(\c1ccccc1)c1ccc(OCCN(C)C)cc1)c1ccccc1`, the carcinogen call was “inactive; negative” (Species: MONKEY, Strain/Sex: CYNOMOLGUS/FEMALE, Route: ORAL, Dose: 0, 20 MG/WOMAN/D HUMAN DOSE EQUIVALENT IN DIET FOR 36 MONTHS BEGINNING 3 MONTHS POST BILATERAL OVARIECTOMY (STUDY DURATI); “active; positive” (Species: MOUSE, Strain/Sex: CD-1/FEMALE, Route: SUBCUTANEOUS, Dose: 0, 1, 2, 5, 10, 25, 50 UG/D ON DAYS 1-5 OF LIFE (STUDY DURATION: 17 MO), Dose: 0, 1, 2, 5, 10, 25, 50 UG/D ON DAYS 1-5 OF LIFE (STUDY DURATION: 17 MO), Tumor Site: Type of Lesion: UTERUS: ADENOCARCINOMA); “inactive; negative” (Species: Mouse, Strain/Sex: CD-1/Female (30/group), Route: Subcutaneous, Dose: 0, 10 ug as tamoxifen in peanut oil, dosed on days 1-5 of life and retained for 1.5 (4 animals), 3 (4 animals), 6 (4 ani, Dose: 0, 10 ug as tamoxifen in peanut oil, dosed on days 1-5 of life and retained for 1.5 (4 animals), 3 (4 animals), 6 (4 ani, Tumor Site: Type of Lesion: Uterus and ovaries examined); “inactive; negative (nonneoplastic changes were observed)” (Species: Mouse, Strain/Sex: CD-1/Female (35/group), Route: Subcutaneous, Dose: 0, 5, 10, 25, 50 ug as tamoxifen in peanut oil, dosed on days 1-5 of life and retained for 3 (4 animals), 6 (4 animals),, Dose: 0, 5, 10, 25, 50 ug as tamoxifen in peanut oil, dosed on days 1-5 of life and retained for 3 (4 animals), 6 (4 animals),, Tumor Site: Type of Lesion: Uterus and ovaries examined); “active; positive” (Species: RAT, Strain/Sex: ALDERLEY PARK/FEMALE, Route: GAVAGE, Dose: 0, 5, 20, 35 MG/KG/D IN 0.5% HYDROXYPROPYL METHYLCELLULOSE FOR 2 YR (STUDY DURATION: 2 YR), Dose: 0, 5, 20, 35 MG/KG/D IN 0.5% HYDROXYPROPYL METHYLCELLULOSE FOR 2 YR (STUDY DURATION: 2 YR), Tumor Site: Type of Lesion: LIVER: HEPATOCELLULAR ADENOMA, HEPATOCELLULAR CARCINOMA, HEPATO/CHOLANGIOCELLULAR CARCINOMA); “active; positive” (Species: RAT, Strain/Sex: ALDERLEY PARK/MALE, Route: GAVAGE, Dose: 0, 5, 20, 35 MG/KG/D IN 0.5% HYDROXYPROPYL METHYLCELLULOSE FOR 2 YR (STUDY DURATION: 2 YR), Dose: 0, 5, 20, 35 MG/KG/D IN 0.5% HYDROXYPROPYL METHYLCELLULOSE FOR 2 YR (STUDY DURATION: 2 YR), Tumor Site: Type of Lesion: LIVER: HEPATOCELLULAR ADENOMA, HEPATOCELLULAR CARCINOMA, HEPATO/CHOLANGIOCELLULAR CARCINOMA). Also, the carcinogen call is “active; positive” (Species: RAT, Strain/Sex: SPRAGUE-DAWLEY/FEMALE, Route: GAVAGE, Dose: 0, 2.8, 11.3, 45.2 MG/KG/D IN CARBOXYMETHYL-CELLULOSE FOR UP TO 1 YR WITH 2 RECOVERY PERIODS, 4 WK OF RECOVERY AFTER 6 M, Dose: 0, 2.8, 11.3, 45.2 MG/KG/D IN CARBOXYMETHYL-CELLULOSE FOR UP TO 1 YR WITH 2 RECOVERY PERIODS, 4 WK OF RECOVERY AFTER 6 M, Tumor Site: Type of Lesion: LIVER: ADENOMA, CARCINOMA); “active; positive” (Species: RAT, Strain/Sex: SPRAGUE-DAWLEY/FEMALE, Route: GAVAGE, Dose: 0, 11.3, 22.6 MG/KG IN 0.5% CARBOXYMETHYLCELLULOSE 1/D 7 D/WK FOR UP TO 12 MO (STUDY DURATION: 15 MO), Dose: 0, 11.3, 22.6 MG/KG IN 0.5% CARBOXYMETHYLCELLULOSE 1/D 7 D/WK FOR UP TO 12 MO (STUDY DURATION: 15 MO), Tumor Site: Type of Lesion: LIVER: HEPATOCELLULAR ADENOMA, HEPATOCELLULAR CARCINOMA); “active; positive” (Species: RAT, Strain/Sex: WISTAR/FEMALE, Route: ORAL, Dose: 0, 1 MG/KG BW/D IN PEANUT OIL/LECITHIN/CONDENSED MILK MIXTURE ON DAYS 2-5 OF AGE (STUDY DURATION: 35 MONTHS), Tumor Site: Type of Lesion: UTERUS: ADENOCARCINOMA, VAGINA/CERVIX: SQUAMOUS CELL CARCINOMA); “active; positive” (Species: RAT, Strain/Sex: WISTAR/FEMALE, Route: ORAL, Dose: 0, 420 PPM IN DIET FOR 3 MO (STUDY DURATION: LIFETIME), Tumor Site: Type of Lesion: LIVER: TUMOR).

The values above are taken from PubChem BioAssay AID1259411 (Chemical Carcinogenesis Research Information System (CCRIS), 2018).
